# Laboratory results as given in the NIST ThermoML archive (doi:10.1021/je400423u).
# Numbers after ± are expanded uncertainties.
# How the values were obtained:
# [1] = 101 kPa, Liquid; for viscosity: Falling or rolling sphere viscometry; for mass density: Vibrating tube method
# [2] = xn = mol fraction of the nth substance listed; settings: 101 kPa, Liquid, x1 = 1; for viscosity: Falling or rolling sphere viscometry; for mass density: Vibrating tube method
SMILES,viscosity ([1]; 308.15 K) [mPa·s],mass density ([1]; 308.15 K) [kg/m3],viscosity ([1]; 313.15 K) [mPa·s],mass density ([1]; 313.15 K) [kg/m3],viscosity ([1]; 318.15 K) [mPa·s],mass density ([1]; 318.15 K) [kg/m3],viscosity ([1]; 323.15 K) [mPa·s],mass density ([1]; 323.15 K) [kg/m3],mass density ([1]; 328.15 K) [kg/m3],mass density ([1]; 333.15 K) [kg/m3],mass density ([1]; 338.15 K) [kg/m3],mass density ([1]; 343.15 K) [kg/m3],further results
CC(C)CO [2-methyl-1-propanol],2.382 ± 0.019,790.12 ± 0.12,2.116 ± 0.017,786.12 ± 0.12,1.861 ± 0.015,782.06 ± 0.12,1.602 ± 0.013,777.93 ± 0.12,773.73 ± 0.12,769.44 ± 0.13,765.07 ± 0.13,760.61 ± 0.13,
CC(C)(C)O [2-methylpropan-2-ol],2.589 ± 0.02,770.36 ± 0.13,2.089 ± 0.016,765.07 ± 0.13,1.69 ± 0.013,759.67 ± 0.13,1.409 ± 0.011,754.19 ± 0.13,748.62 ± 0.13,742.95 ± 0.14,737.19 ± 0.14,731.31 ± 0.14,
CCC(C)O (stereo not given) [butan-2-ol],2.128 ± 0.017,794.05 ± 0.14,1.822 ± 0.015,789.65 ± 0.14,1.533 ± 0.013,785.15 ± 0.14,1.315 ± 0.011,780.55 ± 0.15,775.83 ± 0.15,770.99 ± 0.15,766.03 ± 0.15,760.96 ± 0.15,viscosity ([1]; 333.15 K): 1.025 ± 0.0087 mPa·s
CCC(C)O (stereo not given) [butan-2-ol] + CC(C)CO,,,,,,,,,,,,,viscosity ([2]; 308.15 K): 2.128 ± 0.017 mPa·s; mass density ([2]; 308.15 K): 794.05 ± 0.14 kg/m3; viscosity ([2]; 313.15 K): 1.822 ± 0.015 mPa·s; mass density ([2]; 313.15 K): 789.65 ± 0.14 kg/m3; viscosity ([2]; 318.15 K): 1.533 ± 0.013 mPa·s; mass density ([2]; 318.15 K): 785.15 ± 0.14 kg/m3; viscosity ([2]; 323.15 K): 1.315 ± 0.011 mPa·s; mass density ([2]; 323.15 K): 780.55 ± 0.15 kg/m3; mass density ([2]; 328.15 K): 775.83 ± 0.15 kg/m3; viscosity ([2]; 333.15 K): 1.025 ± 0.0087 mPa·s; mass density ([2]; 333.15 K): 770.99 ± 0.15 kg/m3; mass density ([2]; 338.15 K): 766.03 ± 0.15 kg/m3; mass density ([2]; 343.15 K): 760.96 ± 0.15 kg/m3
